For this experiment, the target named is Protein kinase C, PKC; classical/novel. Put plainly: Binding to PKC in 3[H]-[…] assay. It is filed as protein assay.

The molecule `CC(C)[C@@H]1Nc2c3c(cc4[nH]cc(c24)C[C@@H](CO)NC1=O)C(C)(C)CCC3(C)C` returned a half-inhibitory concentration (IC50) of 400 nM.

The record behind these values is ChEMBL document CHEMBL1126213, “Synthesis and biological activity of a 5,6-substituted teleocidin” (Bioorg Med Chem Lett, 1992).
